According to patent US11760722B2 (priority 2022, dated 2023):

test system: SARS-CoV-2 Delta USA/MD-HP05647/2021 (Lineage B.1.617.2); experiment: microbe, parasite or virus in culture; type: cell-based; conditions: Severe acute respiratory syndrome coronavirus 2, Vero C1008, 4 h; read-out: Vero E6 Delta CPE/EC50

`CC(C)(C)[C@H](NC(=O)C12CC(C1)C2)C(=O)N1C[C@H]2[C@@H]([C@H]1C(=O)N[C@H](C#N)C[C@@H]1CCNC1=O)C2(C)C` [Compound 20] and `CC(C)(C)[C@H](NC(=O)C12CC(F)(C1)C2)C(=O)N1C[C@H]2[C@@H]([C@H]1C(=O)N[C@H](C#N)C[C@@H]1CCNC1=O)C2(C)C` [Compound 34] are within 1.5-fold of each other in EC50: 377 nM for the first, 275 nM for the second.

Going from `CC(C)(C)[C@H](NS(=O)(=O)c1ccccc1)C(=O)N1C[C@H]2[C@@H]([C@H]1C(=O)N[C@H](C#N)C[C@@H]1CCNC1=O)C2(C)C` [Compound 95] to `CC(C)(C)[C@H](NS(=O)(=O)c1cccnc1)C(=O)N1C[C@H]2[C@@H]([C@H]1C(=O)N[C@H](C#N)C[C@@H]1CCNC1=O)C2(C)C` [Compound 93], the EC50 rises from 10.7 nM to 372 nM (35-fold).

Compared with `CC(C)(C)[C@H](NS(=O)(=O)c1ccc(Cl)s1)C(=O)N1C[C@H]2[C@@H]([C@H]1C(=O)N[C@H](C#N)C[C@@H]1CCNC1=O)C2(C)C` [Compound 54], `Cc1ccc(S(=O)(=O)N[C@H](C(=O)N2C[C@H]3[C@@H]([C@H]2C(=O)N[C@H](C#N)C[C@@H]2CCNC2=O)C3(C)C)C(C)(C)C)s1` [Compound 118] is higher in EC50: under 4.5 nM for the first, 23.5 nM for the second.

Going from `Cc1csc(S(=O)(=O)N[C@H](C(=O)N2C[C@H]3[C@@H]([C@H]2C(=O)N[C@H](C#N)C[C@@H]2CCNC2=O)C3(C)C)C(C)(C)C)c1` [Compound 112] to `Cc1cc(S(=O)(=O)N[C@H](C(=O)N2C[C@H]3[C@@H]([C@H]2C(=O)N[C@H](C#N)C[C@@H]2CCNC2=O)C3(C)C)C(C)(C)C)sc1Cl` [Compound 168], the EC50 falls from 63.4 nM to 21.8 nM (2.9-fold). The second is the more potent here.

First: CN(C)S(=O)(=O)N[C@H](C(=O)N1C[C@H]2[C@@H]([C@H]1C(=O)N[C@H](C#N)C[C@@H]1CCNC1=O)C2(C)C)C(C)(C)C [Compound 47, (1R,2S,5S)—N—((S)-1-cyano-2-((S)-2-oxopyrrolidin-3-yl)ethyl)-3-((S)-2-((N,N-dimethylsulfamoyl)amino)-3,3-dimethylbutanoyl)-6,6-dimethyl-3-azabicyclo[3.1.0]hexane-2-carboxamide]
Second: CC(C)(C)[C@H](NC(=O)CS(C)(=O)=O)C(=O)N1C[C@H]2[C@@H]([C@H]1C(=O)N[C@H](C#N)C[C@@H]1CCNC1=O)C2(C)C [Compound 64]
The EC50 of the first is 5.5-fold lower: 242 nM for the first, 1330 nM for the second.

Compared with `CC(C)[C@H]1CC[C@H](C)C[C@@H]1OCC(=O)N[C@H](C(=O)N1C[C@H]2[C@@H]([C@H]1C(=O)N[C@H](C#N)C[C@@H]1CCNC1=O)C2(C)C)C(C)(C)C` [Compound 110], `CC(C)(C)[C@H](NC(=S)NC1CC1)C(=O)N1C[C@H]2[C@@H]([C@H]1C(=O)N[C@H](C#N)C[C@@H]1CCNC1=O)C2(C)C` [Compound 76] is 2.4-fold lower in EC50: 2020 nM for the first, 834 nM for the second. The second is the more potent here.

Compared with `CC(C)(C)[C@H](NC(=O)c1ccc2c(c1)CCC2)C(=O)N1C[C@H]2[C@@H]([C@H]1C(=O)N[C@H](C#N)C[C@@H]1CCNC1=O)C2(C)C` [Compound 120], `CC(C)(C)[C@H](NS(=O)(=O)c1ccc2c(c1)CCO2)C(=O)N1C[C@H]2[C@@H]([C@H]1C(=O)N[C@H](C#N)C[C@@H]1CCNC1=O)C2(C)C` [Compound 83] is 390-fold lower in EC50: 8000 nM for the first, 20.4 nM for the second.

Going from `CN(C)[C@@H]1C[C@@H](C(=O)N[C@H](C#N)C[C@@H]2CCNC2=O)N(C(=O)[C@@H](NC(=O)C(F)(F)F)C(C)(C)C)C1` [Compound 116] to `CC(C)(C)[C@H](NC(=O)C(F)(Cl)C(F)(F)F)C(=O)N1C[C@H]2[C@@H]([C@H]1C(=O)N[C@H](C#N)C[C@@H]1CCNC1=O)C2(C)C` (stereo partly shown) [Compound 75], the EC50 falls from 4000 nM to 45 nM (89-fold).

First: CC(C)(C)[C@H](NC(=O)C(F)(F)C(F)(F)C(F)(F)F)C(=O)N1C[C@H]2[C@@H]([C@H]1C(=O)N[C@H](C#N)C[C@@H]1CCNC1=O)C2(C)C [Compound 133]
Second: CC(C)(C)[C@H](NC(=O)C1(C(F)(F)F)CC1)C(=O)N1C[C@H]2[C@@H]([C@H]1C(=O)N[C@H](C#N)C[C@@H]1CCNC1=O)C2(C)C [Compound 151]
The EC50 of the first is 3.7-fold lower: 437 nM for the first, 1630 nM for the second.

Going from `CCCc1ccc(S(=O)(=O)N[C@H](C(=O)N2C[C@H]3[C@@H]([C@H]2C(=O)N[C@H](C#N)C[C@@H]2CCNC2=O)C3(C)C)C(C)(C)C)s1` [Compound 171] to `CC(C)(C)[C@H](NS(=O)(=O)c1cc2ccccc2s1)C(=O)N1C[C@H]2[C@@H]([C@H]1C(=O)N[C@H](C#N)C[C@@H]1CCNC1=O)C2(C)C` [Compound 111], the EC50 falls from 80.8 nM to under 4.5 nM. The second is the more potent here.

`CC(C)(C)[C@H](NS(=O)(=O)c1ccc(F)c(F)c1)C(=O)N1C[C@H]2[C@@H]([C@H]1C(=O)N[C@H](C#N)C[C@@H]1CCNC1=O)C2(C)C` [Compound 99] and `CC(C)(C)[C@H](NS(=O)(=O)c1ccc(F)cc1)C(=O)N1C[C@H]2[C@@H]([C@H]1C(=O)N[C@H](C#N)C[C@@H]1CCNC1=O)C2(C)C` [Compound 53, (1R,2S,5S)—N—((S)-1-cyano-2-((S)-2-oxopyrrolidin-3-yl)ethyl)-3-((S)-2-((4-fluorophenyl)sulfonamido)-3,3-dimethylbutanoyl)-6,6-dimethyl-3-azabicyclo[3.1.0]hexane-2-carboxamide] are within 1.5-fold of each other in EC50: 22.2 nM for the first, 14.9 nM for the second.

`C=C(F)C(=O)N[C@H](C(=O)N1C[C@H]2[C@@H]([C@H]1C(=O)N[C@H](C#N)C[C@@H]1CCNC1=O)C2(C)C)C(C)(C)C` [Compound 66] and `CNC(=S)N[C@H](C(=O)N1C[C@H]2[C@@H]([C@H]1C(=O)N[C@H](C#N)C[C@@H]1CCNC1=O)C2(C)C)C(C)(C)C` [Compound 35] are within 1.5-fold of each other in EC50: 93.5 nM for the first, 77.9 nM for the second.

`CC(C)(C)[C@H](NS(=O)(=O)c1ccc(C2CC2)cc1)C(=O)N1C[C@H]2[C@@H]([C@H]1C(=O)N[C@H](C#N)C[C@@H]1CCNC1=O)C2(C)C` [Compound 121] and `Cc1ccc(S(=O)(=O)N[C@H](C(=O)N2C[C@H]3[C@@H]([C@H]2C(=O)N[C@H](C#N)C[C@@H]2CCNC2=O)C3(C)C)C(C)(C)C)cc1` [Compound 96] cannot be ordered by EC50: under 4.5 nM for the first, under 4.5 nM for the second.

Going from `CC(C)(C)[C@H](NS(=O)(=O)N1CCOCC1)C(=O)N1C[C@H]2[C@@H]([C@H]1C(=O)N[C@H](C#N)C[C@@H]1CCNC1=O)C2(C)C` [Compound 49] to `COc1ccc(S(=O)(=O)N[C@H](C(=O)N2C[C@H]3[C@@H]([C@H]2C(=O)N[C@H](C#N)C[C@@H]2CCNC2=O)C3(C)C)C(C)(C)C)cc1` [Compound 101], the EC50 falls from 1580 nM to 0.31 nM (5100-fold).

First: CC(C)(C)[C@H](NS(=O)(=O)c1ccc(OC(F)(F)F)cc1)C(=O)N1C[C@H]2[C@@H]([C@H]1C(=O)N[C@H](C#N)C[C@@H]1CCNC1=O)C2(C)C [Compound 89]
Second: CC(C)(C)[C@H](NS(=O)(=O)c1ccc2ccccc2c1)C(=O)N1C[C@H]2[C@@H]([C@H]1C(=O)N[C@H](C#N)C[C@@H]1CCNC1=O)C2(C)C [Compound 102]
The EC50 of the first is higher: 61.8 nM for the first, under 4.5 nM for the second. The second is the more potent here.

First: CC(C)(C)[C@H](NS(=O)(=O)c1cccc2ccccc12)C(=O)N1C[C@H]2[C@@H]([C@H]1C(=O)N[C@H](C#N)C[C@@H]1CCNC1=O)C2(C)C [Compound 85]
Second: CC(C)(C)[C@H](NC(=O)NC1(CS(=O)(=O)C(C)(C)C)CCCCC1)C(=O)N1C[C@H]2[C@@H]([C@H]1C(=O)N[C@H](C#N)C[C@@H]1CCNC1=O)C2(C)C [Compound 16]
The EC50 of the first is lower: under 4.5 nM for the first, 2980 nM for the second.

same assay, conditions: read-out: Vero E6 Delta CPE/EC50

In order of falling EC50:
1. CC(C)(C)[C@H](NC(=O)C12CC(C1)C2)C(=O)N1C[C@H]2[C@@H]([C@H]1C(=O)N[C@H](C#N)C[C@@H]1CCNC1=O)C2(C)C [Compound 20]  392 nM
2. CNC(=S)N[C@H](C(=O)N1C[C@H]2[C@@H]([C@H]1C(=O)N[C@H](C#N)C[C@@H]1CCNC1=O)C2(C)C)C(C)(C)C [Compound 35]  148 nM
3. C=C(F)C(=O)N[C@H](C(=O)N1C[C@H]2[C@@H]([C@H]1C(=O)N[C@H](C#N)C[C@@H]1CCNC1=O)C2(C)C)C(C)(C)C [Compound 66]  97.8 nM
4. CC(C)(C)[C@H](NC(=O)C(F)(Cl)C(F)(F)F)C(=O)N1C[C@H]2[C@@H]([C@H]1C(=O)N[C@H](C#N)C[C@@H]1CCNC1=O)C2(C)C (stereo partly shown) [Compound 75]  50 nM
5. CC(C)(C)[C@H](NS(=O)(=O)c1ccc(F)cc1)C(=O)N1C[C@H]2[C@@H]([C@H]1C(=O)N[C@H](C#N)C[C@@H]1CCNC1=O)C2(C)C [Compound 53, (1R,2S,5S)—N—((S)-1-cyano-2-((S)-2-oxopyrrolidin-3-yl)ethyl)-3-((S)-2-((4-fluorophenyl)sulfonamido)-3,3-dimethylbutanoyl)-6,6-dimethyl-3-azabicyclo[3.1.0]hexane-2-carboxamide]  20.4 nM
